Source: patent US8808743B2, “Benzonatate compositions and methods of use” (priority 2010, dated 2014)

Experiment: Simulated gastrointestinal dissolution testing (FloVitro apparatus, USP simulated gastric and intestinal fluids)
Format: physicochemical
Details: 100 mg dose
Experimental: The dissolution test used procedures devised by DOW Chemical using their proprietary FloVitro™ dissolution apparatus described in U.S. Pat. No. 6,799,123B2 and in the publication titled “FloVitro™ Technology” published online at:
The system used two different media that were combined during the process. The fluid flow rates were:
Simulated gastric fluid=7.7 ml/min
Simulated intestinal fluid=13.1 ml/mi
Total flow through analyzer=20.8 ml/min
To Cell 1: USP simulated gastric fluid (no pepsin)
To Cell 2: USP simulated intestinal fluid (pH 6.8) (SIF)
The samples tested were: • a) 100 mg dose neat benzonatate • b) 220.48 mg of IRP69H resinate: 87.97 mg benzonatate dose • c) 225.15 mg of IRP64H resinate: 102.21 mg benzonatate dose a) 100 mg Neat Benzonatate

## CCCCNc1ccc(C(=O)OCCOCCOCCOCCOCCOCCOCCOCCOCCOC)cc1 [BENZ, benzonatate]
0 min
  Concentration of Homolog in Effluent Total: 0.00 mg/L
  Concentration of Homolog in Effluent n = 3: 0.00 mg/L
  Concentration of Homolog in Effluent n = 4: 0.00 mg/L
  Concentration of Homolog in Effluent n = 5: 0.00 mg/L
  Concentration of Homolog in Effluent n = 6: 0.00 mg/L
  Concentration of Homolog in Effluent n = 7: 0.00 mg/L
  Concentration of Homolog in Effluent n = 8: 0.00 mg/L
  Concentration of Homolog in Effluent n = 9: 0.00 mg/L
  Concentration of Homolog in Effluent n = 10: 0.00 mg/L
  Concentration of Homolog in Effluent n = 11: 0.00 mg/L
  Concentration of Homolog in Effluent n = 12: 0.00 mg/L
  Concentration of Homolog in Effluent n = 13: 0.00 mg/L
  Concentration of Homolog in Effluent n = 14: 0.00 mg/L
  Concentration of Homolog in Effluent n = 15: 0.00 mg/L
  Concentration of Homolog in Effluent n = 16: 0.00 mg/L
  Concentration of Homolog in Effluent n = 17: 0.00 mg/L
10 min
  Concentration of Homolog in Effluent Total: 13.84 mg/L
  Concentration of Homolog in Effluent n = 3: 0.04 mg/L
  Concentration of Homolog in Effluent n = 4: 0.14 mg/L
  Concentration of Homolog in Effluent n = 5: 0.41 mg/L
  Concentration of Homolog in Effluent n = 6: 0.85 mg/L
  Concentration of Homolog in Effluent n = 7: 1.42 mg/L
  Concentration of Homolog in Effluent n = 8: 1.92 mg/L
  Concentration of Homolog in Effluent n = 9: 2.14 mg/L
  Concentration of Homolog in Effluent n = 10: 2.06 mg/L
  Concentration of Homolog in Effluent n = 11: 1.80 mg/L
  Concentration of Homolog in Effluent n = 12: 1.26 mg/L
  Concentration of Homolog in Effluent n = 13: 0.84 mg/L
  Concentration of Homolog in Effluent n = 14: 0.49 mg/L
  Concentration of Homolog in Effluent n = 15: 0.27 mg/L
  Concentration of Homolog in Effluent n = 16: 0.12 mg/L
  Concentration of Homolog in Effluent n = 17: 0.08 mg/L
  Cumul. (cumulative release in effluent): 1.44 mg
20 min
  Concentration of Homolog in Effluent Total: 28.13 mg/L
  Concentration of Homolog in Effluent n = 3: 0.07 mg/L
  Concentration of Homolog in Effluent n = 4: 0.28 mg/L
  Concentration of Homolog in Effluent n = 5: 0.78 mg/L
  Concentration of Homolog in Effluent n = 6: 1.73 mg/L
  Concentration of Homolog in Effluent n = 7: 2.91 mg/L
  Concentration of Homolog in Effluent n = 8: 3.90 mg/L
  Concentration of Homolog in Effluent n = 9: 4.38 mg/L
  Concentration of Homolog in Effluent n = 10: 4.18 mg/L
  Concentration of Homolog in Effluent n = 11: 3.58 mg/L
  Concentration of Homolog in Effluent n = 12: 2.65 mg/L
  Concentration of Homolog in Effluent n = 13: 1.73 mg/L
  Concentration of Homolog in Effluent n = 14: 1.03 mg/L
  Concentration of Homolog in Effluent n = 15: 0.55 mg/L
  Concentration of Homolog in Effluent n = 16: 0.25 mg/L
  Concentration of Homolog in Effluent n = 17: 0.08 mg/L
  Cumul. (cumulative release in effluent): 8.00 mg
30 min
  Concentration of Homolog in Effluent Total: 34.97 mg/L
  Concentration of Homolog in Effluent n = 3: 0.08 mg/L
  Concentration of Homolog in Effluent n = 4: 0.35 mg/L
  Concentration of Homolog in Effluent n = 5: 0.98 mg/L
  Concentration of Homolog in Effluent n = 6: 2.10 mg/L
  Concentration of Homolog in Effluent n = 7: 3.61 mg/L
  Concentration of Homolog in Effluent n = 8: 4.89 mg/L
  Concentration of Homolog in Effluent n = 9: 5.47 mg/L
  Concentration of Homolog in Effluent n = 10: 5.28 mg/L
  Concentration of Homolog in Effluent n = 11: 4.52 mg/L
  Concentration of Homolog in Effluent n = 12: 3.29 mg/L
  Concentration of Homolog in Effluent n = 13: 2.13 mg/L
  Concentration of Homolog in Effluent n = 14: 1.27 mg/L
  Concentration of Homolog in Effluent n = 15: 0.63 mg/L
  Concentration of Homolog in Effluent n = 16: 0.28 mg/L
  Concentration of Homolog in Effluent n = 17: 0.09 mg/L
  Cumul. (cumulative release in effluent): 15.52 mg
40 min
  Concentration of Homolog in Effluent Total: 37.37 mg/L
  Concentration of Homolog in Effluent n = 3: 0.09 mg/L
  Concentration of Homolog in Effluent n = 4: 0.40 mg/L
  Concentration of Homolog in Effluent n = 5: 1.10 mg/L
  Concentration of Homolog in Effluent n = 6: 2.27 mg/L
  Concentration of Homolog in Effluent n = 7: 3.86 mg/L
  Concentration of Homolog in Effluent n = 8: 5.23 mg/L
  Concentration of Homolog in Effluent n = 9: 5.81 mg/L
  Concentration of Homolog in Effluent n = 10: 5.66 mg/L
  Concentration of Homolog in Effluent n = 11: 4.80 mg/L
  Concentration of Homolog in Effluent n = 12: 3.47 mg/L
  Concentration of Homolog in Effluent n = 13: 2.31 mg/L
  Concentration of Homolog in Effluent n = 14: 1.35 mg/L
  Concentration of Homolog in Effluent n = 15: 0.67 mg/L
  Concentration of Homolog in Effluent n = 16: 0.25 mg/L
  Concentration of Homolog in Effluent n = 17: 0.10 mg/L
  Cumul. (cumulative release in effluent): 23.20 mg
50 min
  Concentration of Homolog in Effluent Total: 36.42 mg/L
  Concentration of Homolog in Effluent n = 3: 0.11 mg/L
  Concentration of Homolog in Effluent n = 4: 0.40 mg/L
  Concentration of Homolog in Effluent n = 5: 1.05 mg/L
  Concentration of Homolog in Effluent n = 6: 2.18 mg/L
  Concentration of Homolog in Effluent n = 7: 3.76 mg/L
  Concentration of Homolog in Effluent n = 8: 5.07 mg/L
  Concentration of Homolog in Effluent n = 9: 5.67 mg/L
  Concentration of Homolog in Effluent n = 10: 5.51 mg/L
  Concentration of Homolog in Effluent n = 11: 4.71 mg/L
  Concentration of Homolog in Effluent n = 12: 3.42 mg/L
  Concentration of Homolog in Effluent n = 13: 2.23 mg/L
  Concentration of Homolog in Effluent n = 14: 1.28 mg/L
  Concentration of Homolog in Effluent n = 15: 0.67 mg/L
  Concentration of Homolog in Effluent n = 16: 0.27 mg/L
  Concentration of Homolog in Effluent n = 17: 0.09 mg/L
  Cumul. (cumulative release in effluent): 30.53 mg
60 min
  Concentration of Homolog in Effluent Total: 34.04 mg/L
  Concentration of Homolog in Effluent n = 3: 0.07 mg/L
  Concentration of Homolog in Effluent n = 4: 0.37 mg/L
  Concentration of Homolog in Effluent n = 5: 0.99 mg/L
  Concentration of Homolog in Effluent n = 6: 2.07 mg/L
  Concentration of Homolog in Effluent n = 7: 3.55 mg/L
  Concentration of Homolog in Effluent n = 8: 4.76 mg/L
  Concentration of Homolog in Effluent n = 9: 5.36 mg/L
  Concentration of Homolog in Effluent n = 10: 5.13 mg/L
  Concentration of Homolog in Effluent n = 11: 4.41 mg/L
  Concentration of Homolog in Effluent n = 12: 3.17 mg/L
  Concentration of Homolog in Effluent n = 13: 2.09 mg/L
  Concentration of Homolog in Effluent n = 14: 1.25 mg/L
  Concentration of Homolog in Effluent n = 15: 0.56 mg/L
  Concentration of Homolog in Effluent n = 16: 0.26 mg/L
  Concentration of Homolog in Effluent n = 17: 0.00 mg/L
  Cumul. (cumulative release in effluent): 63.41 mg
